# Experimental data published in PubChem BioAssay (NCI).
#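 Step 1: Grow cells in 96-well plates. Step 2: Expose to compound for 48 hours at 5 concentrations. Step 3: Interpolate endpoints linearly; if unreached, use highest concentration. GI50 = concentration required for 50% inhibition of growth. TGI: concentration producing complete growth inhibition.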
# Legend:
# Assay in all cases: growth of human tumour cells (NCI), 48 h
# [1] = system: OVCAR-3 ovarian
# [2] = system: A549 NSCLC
# [3] = system: HS 578T breast
# [4] = system: NCI-H522 lung
# [5] = system: SK-OV-3 ovarian
# [6] = system: UACC-62 melanoma
# [7] = system: UACC-257 melanoma
# [8] = system: SNB-19 CNS
# [9] = system: T-47D breast
# [10] = system: NCI/ADR-RES ovarian
# [11] = system: SW-620 colon
# [12] = system: MDA-MB-231 breast
# [13] = system: SF-539 CNS
# [14] = system: 786-0 renal
# [15] = system: SNB-75 CNS
# [16] = system: K-562 leukemia
# [17] = system: NCI-H23 lung
# [18] = system: SR leukemia
# [19] = system: MALME-3M melanoma
# [20] = system: HT29 colon
# [21] = system: RXF 393 renal
# [22] = system: M14 melanoma
# [23] = system: HOP-62 NSCLC
# [24] = system: SN12C renal
# [25] = system: SK-MEL-5 melanoma
# [26] = system: LOX IMVI melanoma
# [27] = system: OVCAR-4 ovarian
# [28] = system: CCRF-CEM leukemia
# [29] = system: A498 renal
# [30] = system: HCC-2998 colon
# [31] = system: COLO 205 colon
# [32] = system: MCF7 breast
# [33] = system: CAKI-1 renal
# [34] = system: MOLT-4 leukemia
# [35] = system: SF-295 CNS
# [36] = system: OVCAR-8 ovarian
# [37] = system: HCT-116 colon
# [38] = system: RPMI-8226 leukemia
# [39] = system: HOP-92 NSCLC
# [40] = system: HCT-15 colon
# [41] = system: SK-MEL-2 melanoma
# [42] = system: EKVX NSCLC
# [43] = system: HL-60(TB) leukemia
# [44] = system: NCI-H460 lung
# [45] = system: TK-10 renal
# [46] = system: NCI-H226 lung
# [47] = system: UO-31 renal
# [48] = system: IGROV1 ovarian
# [49] = system: MDA-MB-435
# [50] = system: DU-145 prostate
# [51] = system: MDA-MB-468 breast
# [52] = system: SF-268 CNS
# [53] = system: BT-549 breast
# [54] = system: U251 CNS
# [55] = system: PC-3 prostate
# [56] = system: KM12 colon
# [57] = system: ACHN renal
# [58] = system: SK-MEL-28 melanoma
# [59] = system: OVCAR-5 ovarian
structure (smiles),measurement,setting,value
CCCCNC(=S)Nc1ccc(OCc2nc3ccc(Cl)cc3[nH]2)cc1,GI50,[1],4.65 µM
same,TGI,[1],19 µM
same,GI50,[2],12.2 µM
same,TGI,[2],26.7 µM
same,GI50,[3],10.7 µM
same,TGI,[3],38.6 µM
same,GI50,[4],3.07 µM
same,TGI,[4],14.8 µM
same,GI50,[5],14.8 µM
same,TGI,[5],28.6 µM
same,GI50,[6],9.83 µM
same,TGI,[6],21.7 µM
same,GI50,[7],11.5 µM
same,TGI,[7],24.1 µM
same,GI50,[8],12.8 µM
same,TGI,[8],25.4 µM
same,GI50,[9],6.06 µM
same,TGI,[9],20.5 µM
same,GI50,[10],5.73 µM
same,TGI,[10],23.4 µM
same,GI50,[11],11.9 µM
same,TGI,[11],30.7 µM
same,GI50,[12],9.9 µM
same,TGI,[12],22.1 µM
same,GI50,[13],11.5 µM
same,TGI,[13],23.6 µM
same,GI50,[14],2.67 µM
same,TGI,[14],10.1 µM
same,GI50,[15],3.48 µM
same,TGI,[15],18.1 µM
same,GI50,[16],3.41 µM
same,TGI,[16],> 100 µM
same,GI50,[17],10.5 µM
same,TGI,[17],23.5 µM
same,GI50,[18],2.91 µM
same,TGI,[18],17.4 µM
same,GI50,[19],11.6 µM
same,TGI,[19],23.9 µM
same,GI50,[20],10.7 µM
same,TGI,[20],24.6 µM
same,GI50,[21],3.82 µM
same,TGI,[21],16.2 µM
same,GI50,[22],11.3 µM
same,TGI,[22],26.8 µM
same,GI50,[23],13.9 µM
same,TGI,[23],27.3 µM
same,GI50,[24],10.5 µM
same,TGI,[24],22.9 µM
same,GI50,[25],11.9 µM
same,TGI,[25],24.5 µM
same,GI50,[26],3.41 µM
same,TGI,[26],16.2 µM
same,GI50,[27],7.67 µM
same,TGI,[27],21.5 µM
same,GI50,[28],3.16 µM
same,TGI,[28],12.4 µM
same,GI50,[29],12.1 µM
same,TGI,[29],24.9 µM
same,GI50,[30],4.14 µM
same,TGI,[30],17.1 µM
same,GI50,[31],17 µM
same,TGI,[31],38.1 µM
same,GI50,[32],3.55 µM
same,TGI,[32],18.8 µM
same,GI50,[33],4.42 µM
same,TGI,[33],18.3 µM
same,GI50,[34],3.23 µM
same,TGI,[34],13.3 µM
same,GI50,[35],6.92 µM
same,TGI,[35],20.6 µM
same,GI50,[36],12.4 µM
same,TGI,[36],25.9 µM
same,GI50,[37],4.54 µM
same,TGI,[37],19.7 µM
same,GI50,[38],3.83 µM
same,TGI,[38],30.3 µM
same,GI50,[39],2.04 µM
same,TGI,[39],6.43 µM
same,GI50,[40],4.59 µM
same,TGI,[40],17.9 µM
same,GI50,[41],13.1 µM
same,TGI,[41],26.3 µM
same,GI50,[42],7.13 µM
same,TGI,[42],20.2 µM
same,GI50,[43],1.8 µM
same,TGI,[43],9.66 µM
same,GI50,[44],10.2 µM
same,TGI,[44],27.8 µM
same,GI50,[45],13.1 µM
same,TGI,[45],26.2 µM
same,GI50,[46],9.57 µM
same,TGI,[46],26.4 µM
same,GI50,[47],3.46 µM
same,TGI,[47],16.2 µM
same,GI50,[48],5.3 µM
same,TGI,[48],18.5 µM
same,GI50,[49],10.1 µM
same,TGI,[49],22.2 µM
same,GI50,[50],12.9 µM
same,TGI,[50],26 µM
same,GI50,[51],2.45 µM
same,TGI,[51],12.4 µM
same,GI50,[52],12.1 µM
same,TGI,[52],27.9 µM
same,GI50,[53],9.98 µM
same,TGI,[53],22.4 µM
same,GI50,[54],13.1 µM
same,TGI,[54],26.4 µM
same,GI50,[55],3.08 µM
same,TGI,[55],14.5 µM
same,GI50,[56],14 µM
same,TGI,[56],28.9 µM
same,GI50,[57],7.74 µM
same,TGI,[57],20.4 µM
same,GI50,[58],14.3 µM
same,TGI,[58],27.5 µM
same,GI50,[59],13 µM
same,TGI,[59],25.6 µM
